From patent US20250161244A1 (UNION HOSPITAL, TONGJI MEDICAL COLLEGE, HUAZHONG UNI. OF …, priority 2023, published 2025)

System: LX-2 cells (human HSCs)
Assay: CCK8 experiment, proliferation of LX-2 cells
Format: cell-based
Details: 48 h incubation, CCK-8; tested at 2.5 μM and 5 μM

CC1=C(/C=C/C(C)=C/C=C/C(C)=C/CO)C(C)(C)CCC1 [VA, vitamin A]
inhibitory effect on LX-2 cells proliferation: no inhibitory effect
